According to publication PMC7527053, “Structure of Merkel Cell Polyomavirus Capsid and Interaction with Its Glycosaminoglycan Attachment Receptor” (Journal of Virology, 2020):

Columns and labels:
[1] = target: T1, HPV-16 VLPs (L1- and L2-containing) (Human papillomavirus 16, UniProt P03101); test: STD-NMR; assay type: binding; details: 10 uM VLP, 1 mM ligand, D2O, 283 K; buffer printed as PBS and as 150 mM NaCl, 20 mM KH2PO4 pH 7.4
T1 construct: L1/L2 VLPs produced by the MCPyV VLP procedure (293TT cells) without the ion chromatography step; plasmids pshell16 and p16L1L2; with Minor capsid protein L2

[2] = target: T2, MCPyV VLPs (VP1/VP2 virus-like particles) (Merkel cell polyomavirus, UniProt B0G0W3); test: STD-NMR; assay type: binding; details: 10 uM VLP, 1 mM ligand, 150 mM NaCl, 1 mM CaCl2, D2O, 283 K
T2 construct: untagged icosahedral VLPs of 72 VP1 pentamers; VP1-only VLPs behaved the same; with Minor capsid protein VP2

[3] = target: Merkel cell polyomavirus (MCPyV) major capsid protein VP1, assembled as virus-like particles (Merkel cell polyomavirus (MCC isolate 339)); test: crystal structure; filled VLPs (fVLPs), crystals grown in 0.1 M sodium citrate pH 4.6, 30% MPD, 0.2 M NaCl at 20°C; 3.5 Å
[4] = target: Merkel cell polyomavirus (MCPyV) major capsid protein VP1, assembled as virus-like particles (Merkel cell polyomavirus (MCC isolate 339)); test: nonreducing SDS-PAGE; purified VLPs incubated with 10 mM DTT and/or 50 mM EDTA with 2% SDS for 1 h at ambient temperature; capsid to pentamers

CO[C@H]1O[C@H](COS(=O)(=O)O)[C@@H](O[C@@H]2O[C@@H](C(=O)O)[C@@H](O[C@H]3O[C@H](COS(=O)(=O)O)[C@@H](O[C@@H]4O[C@H](C(=O)O)[C@@H](O[C@H]5O[C@H](COS(=O)(=O)O)[C@@H](O)[C@H](O)[C@H]5NS(=O)(=O)O)[C@H](O)[C@H]4O)[C@H](OS(=O)(=O)O)[C@H]3NS(=O)(=O)O)[C@H](O)[C@H]2OS(=O)(=O)O)[C@H](O)[C@H]1NS(=O)(=O)O [Arixtra, GlcNS6Sα1-4GlcAα1-4GlcNS3S6Sα1-4IdoA2Sα1-4GlcNS6Sα-OMet]
STD-NMR [1]: the HPV-16 VLP Arixtra binding epitope is indistinguishable from the MCPyV VLP Arixtra epitope | STD-NMR ([2]; filled (and empty) VLPs): we observed STD-NMR signals throughout the full length of the pentasaccharide

O=C(O)C1=C[C@H](O)[C@@H](OS(=O)(=O)O)[C@H](O[C@H]2[C@H](O)[C@@H](NS(=O)(=O)O)C(O)O[C@@H]2COS(=O)(=O)O)O1 (some centres unmarked) [HS-dp2, ΔUA2Sα1-4GlcNS6S]
STD-NMR ([2]; VP1-only and VP1/VP2 VLPs): an interaction between MCPyV VLPs and dp2 was unambiguously observed

Merkel cell polyomavirus (MCPyV) major capsid protein VP1, assembled as virus-like particles (natural protein)
stoichiometry N [3]: 360 | stoichiometry N [4]: 5
